The assay concerns the target DCN1 (DCUND1) protein PONY domain (Homo sapiens (Human), UniProt Q96GG9). The assay can be described thus: TR-FRET assay (binding to DCN-1, displacement of FAM-labeled probe).
Excerpt: (§1) The TR-FRET assay was designed following the Scott et al. protocol (Scott et al., Nat Chem Biol. 2017 August; 13(8): 850-857. doi:10.1038/nchembio.2386). The recombinant form of the DCN1 (DCUND1) protein PONY domain was produced using an E. coli expression system at Viva Biotech (China). The DCN1 protein was biotinylated (EZ sulfo-NHS-LC-biotin; Thermofisher) for labeling with streptavidin terbium (Tb) cryptate in the reaction. The probe was changed to a non-covalent DCN1 inhibitor labeled with carboxyfluorescein (FAM; Zhou et al., Nat Commun. 2017; 8: 1150. doi: 10.1038/s41467-017-01243-7). Buffer conditions were modified to enhance protein stability by exchanging Tween20 for TritonX and increasing NaCl to 200 mM. The compounds were screened against 5 nM DCN1 and 20 nM FAM-probe or 0.31 nM DCN1 and 900 nM total probe (100 nM FAM-labeled plus 800 nM unlabeled). The TR-FRET ratio between Tb-DCN1 and the FAM-labeled probe was measured in a 384-well opti-plate (Perkin Elmer) using a plate reader (BMG) at 1, 5, and 24 hrs after treatment with compound (final DMSO concentration of 0.1%). The ratio was normalized to the high (DCN1 and FAM-probe) and low (DCN1 and no probe) controls for a readout of % activity (=100*(x−low)/(high−low).
A TR-FRET assay was performed to evaluate the ability of the compounds to bind the DCN-1 protein.
as §1, with “850-857. Doi: 10.1038/nchembio.2386).” for “850-857. doi:10.1038/nchembio.2386).”, “the DCNI” for “the DCN1”, “1150. Doi:” for “1150. doi:”, “0.1%).” for “0.1%). The ratio was normalized to the high (DCN1 and FAM-probe) and low (DCN1 and no probe) controls for a readout of % activity (=100*(x−low)/(high−low).”
A general note: TR-FRET usually uses a lanthanide donor and a delayed reading to cut background.

Where [1] appears, read: 24 hr after treatment with compound, read-out: TR FRET IC50 24 hr.
Setting [2] is: read-out: TR FRET IC50 1 hr, 1 hr after treatment with compound.
The mark [3] stands for this setting: TR FRET IC50 1 hr (nM), 1 hr after treatment with compound.

Read-outs that look alike come from different tables or passages of the source.

DCN1 (DCUND1) protein PONY domain, sequence (Q96GG9 60-248): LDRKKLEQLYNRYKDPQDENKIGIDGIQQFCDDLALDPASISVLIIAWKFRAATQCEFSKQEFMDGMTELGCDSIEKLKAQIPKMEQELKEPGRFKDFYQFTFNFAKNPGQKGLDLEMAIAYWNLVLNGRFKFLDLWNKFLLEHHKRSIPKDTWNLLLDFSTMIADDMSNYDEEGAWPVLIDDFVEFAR

As usually defined, the IC50 is the point on the concentration scale where inhibition reaches its midpoint. Take `C=C(C(=O)NCc1cccc([C@@H]2c3cnn(-c4ccccc4)c3N(CC)C(=O)[C@H]2NC(=O)c2nccc(C(F)(F)F)n2)c1)C(C)N1CC2CC(C1)O2` (stereo partly shown) [Compound I-324]: the IC50 reads like this: under setting [1], at most 200 nM; under setting [2], at most 200 nM.

In the case of `CCN1C(=O)[C@H](NC(=O)c2cccc(C(F)(F)F)c2)[C@@H](c2cccc(NC(=O)C#CCN3CCOCC3)c2)c2c(C)nn(-c3ccccc3)c21` (racemic) [Compound I-35], the concentration for half-maximal inhibition (IC50) reads like this: under setting [1], 1000 to 3000 nM; under setting [3], 1000 to 3000 nM.

Turning to `C=C(C(=O)NCc1cccc([C@@H]2c3cnn(-c4ccccc4)c3N(CC)C(=O)[C@H]2NC(=O)c2nccc(C(F)(F)F)n2)c1)[C@H](C)N(C)C1COC1` (single isomer, unassigned) [Compound I-382], the IC50 under setting [3] lay in the range of 200 to 1000 nM.

As for `CCN1C(=O)[C@@H](NC(=O)c2nccc(C(F)(F)F)n2)[C@H](c2cccc(CNC(=O)C(COC)CN3CCC(F)(F)C3)c2)c2cnn(-c3ccccc3)c21` (stereo partly shown) [Compound I-360], the IC50 is, setting by setting: under setting [1], 1000 to 3000 nM; under setting [3], 1000 to 3000 nM.

On to `CCN1C(=O)[C@@H](NC(=O)c2cccc(C(F)(F)F)c2)[C@H](c2cc(F)cc(NC(=O)/C=C/CN(C)C)c2)c2cnn(-c3ccccc3)c21` [Compound I-151], for which the IC50 is at most 200 nM under setting [1] and 1000 to 3000 nM under setting [3].

For `C/C=C(/CN1CCOCC1)C(=O)NCc1cccc([C@@H]2c3cnn(-c4ccccc4)c3N(CC)C(=O)[C@H]2NC(=O)c2ccn(C3CC3)n2)c1` [Compound I-381], the IC50 fell in the range of 1000 to 3000 nM under setting [1] and 1000 to 3000 nM under setting [3].

As to `CCN1C(=O)[C@@H](NC(=O)c2nccc(C(F)(F)F)n2)[C@H](c2cccc(NC(=O)C3=CCC3)n2)c2cnn(-c3ccccc3)c21` (racemic) [Compound I-279], the IC50 by setting is: under setting [1], 1000 to 3000 nM; under setting [3], 1000 to 3000 nM.

For the molecule `C=C(C(=O)NCc1cccc([C@@H]2c3cnn(-c4ccccc4)c3N(CC)C(=O)[C@H]2NC(=O)c2nccc(C(F)(F)F)n2)c1)C(C)N1CCN(C2COC2)CC1` (stereo partly shown) [Compound I-310], the IC50 runs as follows: under setting [1], at most 200 nM; under setting [2], at most 200 nM.

Take `C=C(CN1CC2CC1CO2)C(=O)NCc1cccc([C@@H]2c3cnn(-c4ccccc4)c3N(CC)C(=O)[C@H]2NC(=O)c2cccc(C(F)(F)F)c2)c1` (stereo partly shown) [Compound I-7]: the IC50 by setting is: under setting [1], at most 200 nM; under setting [2], at most 200 nM.

As to `C=C(CN(C)C1COC1)C(=O)NCc1cccc([C@H]2c3c(C)nn(-c4ccccc4)c3N(CC)C(=O)[C@@H]2NC(=O)c2cccc(C(F)(F)F)c2)c1` [Compound I-349], the IC50 is, setting by setting: under setting [1], 200 to 1000 nM; under setting [3], 1000 to 3000 nM.

Regarding `C/C=C(\CN1CC2(COC2)C1)C(=O)NCc1cccc([C@@H]2c3cnn(-c4ccccc4)c3N(CC)C(=O)[C@H]2NC(=O)c2nccc(C(F)(F)F)n2)c1` [Compound I-243], the IC50 under setting [1] is at most 200 nM and the IC50 under setting [3] fell in the range of 200 to 1000 nM.

In the case of `CCN1C(=O)[C@@H](NC(=O)c2cccc(C(F)(F)F)c2)[C@H](c2ccccc2CN(C)C#N)c2cnn(-c3ccccc3)c21` (racemic) [Compound I-49], the IC50 was in the range of 1000 to 3000 nM under setting [1] and 1000 to 3000 nM under setting [3].

In the case of `C=C(C(=O)NCc1cccc([C@@H]2c3cnn(-c4ccccc4)c3N(CC)C(=O)[C@H]2NC(=O)c2ccn(C3CC3)n2)c1)C(C)N(C)C1COC1` (stereo partly shown) [Compound I-327], the IC50 is, setting by setting: under setting [1], at most 200 nM; under setting [2], at most 200 nM.

`C=C(Cn1cc(F)cn1)C(=O)NCc1cccc([C@@H]2c3cnn(-c4ccccc4)c3N(CC)C(=O)[C@H]2NC(=O)c2nccc(C(F)(F)F)n2)c1` [Compound I-331]: the IC50 runs as follows: under setting [1], 200 to 1000 nM; under setting [3], 1000 to 3000 nM.

On to `C=C(CN1CC2CC(C1)O2)C(=O)N(C)Cc1cccc([C@@H]2c3cnn(-c4ccccc4)c3N(CC)C(=O)[C@H]2NC(=O)c2ccn(C3CC3)n2)c1` [Compound I-258], for which, under setting [3], the IC50 is 1000 to 3000 nM.

On to `C/C=C(\CN1CCN(C2COC2)CC1)C(=O)N(C)c1cccc([C@@H]2c3cnn(-c4ccccc4)c3N(CC)C(=O)[C@H]2NC(=O)c2csc(C(F)(F)F)n2)c1` [Compound I-301, N-((4R,5S)-7-ethyl-4-(3-((E)-N-methyl-2-((4-(oxetan-3-yl)piperazin-1-yl)methyl)but-2-enamido)phenyl)-6-oxo-1-phenyl-4,5,6,7-tetrahydro-1H-pyrazolo[3,4-b]pyridin-5-yl)-2-(trifluoromethyl)thiazole-4-carboxamide], for which the 50% inhibitory concentration (IC50) lay within 200 to 1000 nM under setting [1] and 1000 to 3000 nM under setting [3].

As to `CCC(=O)NCc1cccc([C@@H]2c3cnn(-c4ccccc4)c3N(CC)C(=O)[C@H]2NC(=O)c2ccn(C(F)(F)F)n2)c1` [Compound I-335], the IC50 by setting is: under setting [1], 200 to 1000 nM; under setting [3], 1000 to 3000 nM.

Take `CCN1C(=O)[C@@H](NC(=O)c2cccc(C(F)(F)F)c2)[C@H](c2cncc(NC(=O)C3=CCC3)c2)c2cnn(-c3ccccc3)c21` [Compound I-319]: the IC50 runs as follows: under setting [1], 200 to 1000 nM; under setting [3], 1000 to 3000 nM.

For the molecule `CCN1C(=O)[C@@H](NC(=O)c2cccc(C(F)(F)F)c2)[C@H](c2cncc(NC(=O)/C=C/CN(C)C)c2)c2cnn(-c3ccccc3)c21` [Compound I-320], the IC50 runs as follows: under setting [1], 200 to 1000 nM; under setting [3], 1000 to 3000 nM.

Regarding `CCN1C(=O)[C@@H](NC(=O)c2cccc(C(F)(F)F)c2)[C@H](c2ccccc2CN(C)C#N)c2c(C)nn(-c3ccccc3)c21` (racemic) [Compound I-30], the IC50 runs as follows: under setting [1], 1000 to 3000 nM; under setting [3], 1000 to 3000 nM.

On to `C=C(CN1CCOCC1)C(=O)N[C@H](C)c1cccc([C@@H]2c3cnn(-c4ccccc4)c3N(CC)C(=O)[C@H]2NC(=O)c2nccc(C(F)(F)F)n2)c1` (mixture of isomers) [Compound I-281], for which the IC50 is, setting by setting: under setting [1], 200 to 1000 nM; under setting [3], 1000 to 3000 nM.

`C=C(C)S(=O)(=O)Nc1cccc([C@H]2c3c(C)nn(-c4ccccc4)c3N(CC)C(=O)[C@@H]2NC(=O)c2cccc(C(F)(F)F)c2)c1` (racemic) [Compound I-88]: the IC50 is, setting by setting: under setting [1], 1000 to 3000 nM; under setting [3], 1000 to 3000 nM.

With `C=C(CN1C[C@@H]2C[C@H]1CO2)C(=O)NCc1cccc([C@@H]2c3cnn(-c4ccccc4)c3N(CC)C(=O)[C@H]2NC(=O)c2nccc(C(F)(F)F)n2)c1` (mixture of isomers) [Compound I-160], the IC50 runs as follows: under setting [1], at most 200 nM; under setting [2], at most 200 nM.

Consider `C=C(CN1CC2CCC1CO2)C(=O)NCc1cccc([C@@H]2c3cnn(-c4ccccc4)c3N(CC)C(=O)[C@H]2NC(=O)c2cccc(C(F)(F)F)c2)c1` (stereo partly shown) [Compound I-293], for which the IC50 by setting is: under setting [1], at most 200 nM; under setting [2], at most 200 nM.

For `C=C(CC(=O)OC)C(=O)Nc1cccc([C@@H]2c3c(C)nn(-c4ccccc4)c3N(CC)C(=O)[C@H]2NC(=O)c2cccc(C(F)(F)F)c2)c1` (racemic) [Compound I-41], the IC50 under setting [1] fell in the range of 1000 to 3000 nM and the IC50 under setting [3] lay within 1000 to 3000 nM.

Turning to `CCN1C(=O)[C@H](NC(=O)c2cccc(C(F)(F)F)c2)[C@@H](c2cccc(CNC(=O)C3=C(C(=O)OC)CC3)c2)c2cnn(-c3ccccc3)c21` [Compound I-118], the IC50 under setting [1] lay in the range of 1000 to 3000 nM and the IC50 under setting [3] lay in the range of 1000 to 3000 nM.

`CCN1C(=O)[C@@H](NC(=O)c2cccc(C(F)(F)F)c2)[C@H](c2cccc(NC(=O)/C=C(\C)C(=O)OC)c2)c2c(C)nn(-c3ccccc3)c21` (racemic) [Compound I-157]: the IC50 runs as follows: under setting [1], 200 to 1000 nM; under setting [3], 1000 to 3000 nM.

In the case of `C=C(CN1CCN(C2COC2)CC1)C(=O)NCc1cccc([C@@H]2c3c(C)nn(-c4ccccc4)c3N(CC)C(=O)[C@H]2NC(=O)c2cccc(C(F)(F)F)c2)c1` (stereo in doubt) [Compound I-252], the IC50 by setting is: under setting [1], at most 200 nM; under setting [3], 1000 to 3000 nM.

For the molecule `C/C=C(\CN1CCOCC1)C(=O)NCc1cccc([C@@H]2c3cnn(-c4ccccc4)c3N(CC)C(=O)[C@H]2NC(=O)c2cccc(C(F)(F)F)c2)c1` [Compound I-152], the IC50 under setting [1] was at most 200 nM and the IC50 under setting [3] lay within 1000 to 3000 nM.

`C=C(CN1CC(C)(O)C1)C(=O)NCc1cccc([C@@H]2c3cnn(-c4ccccc4)c3N(CC)C(=O)[C@H]2NC(=O)c2cccc(C(F)(F)F)c2)c1` [Compound I-361]: the IC50 is at most 200 nM under setting [1] and at most 200 nM under setting [2].

(Values after US12435087B2, “Modulators of DCN-1 and methods of use thereof” (Cellarity, Inc., priority 2023, dated 2025).)
